Reference: patent US5679678A, “Thienithiazine derivatives” (Chemisch Pharmazeutische Forschungsgesellschaft m.b.H., priority 1991, dated 1997)

Columns and labels:
cyclooxygenase = test: Formation of prostaglandin D2 by neutrophils (measure of cyclooxygenase activity), A23187 stimulated, RIA; type: cell-based, Sprague-Dawley rats; conditions: rat peritoneal neutrophils (lambda-carageenan), 5 min preincubation at 37° C., A23187 2 μmol/l, read-out: IC50 PGD2
Method: (§1) The formation of prostaglandin D2 by neutrophils was used as a measure of the cyclooxygenase activity, and the formation of leucotrien B4 as a measure of the 5-lipoxygenase activity.
(§2) Male Sprague-Dawley rats (250-300 g) received 1 mg of lambda-carageenan (dissolved in 0.5 ml of distilled water) injected intraperitoneally.
(§3) After 16 hours, the rats were sacrificed by exposure to diethyl ether. 15 ml of Hanks balanced salt solution (HBSS) were injected i.p., the neutrophils were harvested by aspiration (10 ml) and were centrifuged (5 min, 100 g, 4° C.), the supernatant solution was decanted, and the cells were resuspended in HBSS at 4° C. to a concentration of 5×10^6 cells/ml.
(§4) 400 μl of cell suspension (2×10^6 cells), […] of compound dissolved in DMSO and 49.5 μl of HBSS were incubated at 37° C. for 5 min. Then 50 μl of A23187 (2 μmol/1 final concentration) were added and subsequently the mixture was again incubated at 37° C. for 5 min.
(§5) The reaction was stopped by centrifugation at 10,000 g for 3 s, and the supernatant liquid was transferred into precooled plastic tubes and left in an ice bath for a maximum of 1 h before starting the radioimmunoassay measurement.
(§6) PGD2 and LTB4 were measured after dilution with HBSS using commercial RIA kits.
(§7) The comparison substance was 6-chloro-2-methyl-N-(2-pyridyl)-2H-thieno[2,3-e]-1,2-thiazine-3-carboxamide 1,1-dioxide ("LORNOXICAM", Compound A).

5-lipoxygenase = target: T1, 5-lipoxygenase (Rattus norvegicus, UniProt P12527); test: Formation of leucotrien B4 by neutrophils (measure of 5-lipoxygenase activity), A23187 stimulated, RIA; type: cell-based, Sprague-Dawley rats; conditions: rat peritoneal neutrophils (lambda-carageenan), 5 min preincubation at 37° C., A23187 2 μmol/l, read-out: IC50 LTB4
T1 construct: endogenous in cells; host or cells: peritoneal neutrophils of male Sprague-Dawley rats, elicited by i.p. carrageenan (16 h)
T1 sequence (P12527 1-673): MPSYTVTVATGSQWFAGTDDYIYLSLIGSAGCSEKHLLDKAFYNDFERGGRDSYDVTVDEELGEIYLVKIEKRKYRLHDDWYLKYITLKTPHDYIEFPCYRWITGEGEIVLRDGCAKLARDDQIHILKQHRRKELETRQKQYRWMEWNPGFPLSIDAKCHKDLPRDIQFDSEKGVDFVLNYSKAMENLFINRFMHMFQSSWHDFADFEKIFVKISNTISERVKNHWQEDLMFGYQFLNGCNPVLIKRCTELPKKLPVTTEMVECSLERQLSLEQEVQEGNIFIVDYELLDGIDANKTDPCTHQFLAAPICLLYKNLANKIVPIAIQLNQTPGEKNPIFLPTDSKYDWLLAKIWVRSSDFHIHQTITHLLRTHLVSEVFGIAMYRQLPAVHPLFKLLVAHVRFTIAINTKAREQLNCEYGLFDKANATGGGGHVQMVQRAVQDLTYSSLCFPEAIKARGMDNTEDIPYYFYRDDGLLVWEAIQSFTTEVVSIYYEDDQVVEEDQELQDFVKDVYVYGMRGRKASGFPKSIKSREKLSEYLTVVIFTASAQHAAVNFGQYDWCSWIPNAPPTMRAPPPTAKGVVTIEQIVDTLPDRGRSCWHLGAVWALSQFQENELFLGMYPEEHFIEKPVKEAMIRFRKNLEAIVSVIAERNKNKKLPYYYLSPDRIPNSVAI
Method: as §1, §2, §3, §4, §5, §6, §7

Compound | IC50 (cyclooxygenase) [nM] | IC50 (5-lipoxygenase) [nM]
CN1C(C(=O)Nc2nccs2)=C(O)c2sc(Cl)cc2S1(=O)=O [Compound 1, 6-Chloro-4-hydroxy-2-methyl-N-(2-thiazolyl)-2H-thieno[2,3-e]-1,2-thiazine-3-carboxamide 1,1-dioxide] | 17 | > 10000
CN1C(C(=O)Nc2nc(-c3ccccc3)cs2)=C(O)c2sc(Cl)cc2S1(=O)=O [Compound 2, 6-Chloro-4-hydroxy-2-methyl-N-(4phenyl-2-thiazolyl)-2H-thieno[2,3-e]-1,2-thiazine-3-carboxamide 1,1-dioxide] | 27 | > 10000
CN1C(C(=O)Nc2nc(-c3ccccc3)cs2)=C(O)c2sc(-c3ccco3)cc2S1(=O)=O [Compound 3, 6-(2-Furyl)-4-hydroxy-2-methyl-N-(4-phenyl-2thiazolyl)-2H-thieno[2,3-e]-1,2-thiazine-3-carboxamide 1,1-dioxide] | 17 | 5200
CN1C(C(=O)Nc2nc(-c3ccc(Oc4ccc(F)cc4)o3)cs2)=C(O)c2sc(Cl)cc2S1(=O)=O [Compound 4, 6-Chloro-N-{4-[5-(4-fluorophenoxy)-2-furanyl]-2-thiazolyl}-4-hydroxy-2-methyl-2H-thieno[2,3-e]-1,2-thiazine-3-carboxamide 1,1-dioxide] | 3400 | 470
CN1C(C(=O)Nc2nc(-c3ccc(Oc4ccc(F)cc4)o3)cs2)=C(O)c2sc(-c3ccco3)cc2S1(=O)=O [Compound 5, N-{4[5-(4-Fluorophenoxy)-2-furanyl]-2-thiazolyl}-6-(2-furanyl)-4-hydroxy-2-methyl-2H-thieno[2,3-]-1,2-thiazine-3-carboxamide 1,1-dioxide] | 270 | 660
CN1C(C(=O)Nc2nc(-c3ccc(-c4ccc(F)cc4)o3)cs2)=C(O)c2sc(Cl)cc2S1(=O)=O [Compound 6, 6-Chloro-N-{4-[5-(4-fluorophenyl)-2-furanyl]-2-thiazolyl}-4-hydroxy-2-methyl-2H-thieno[2,3-e]-1,2-thiazine-3-carboxamide 1,1-dioxide] | 3600 | 580
CN1C(C(=O)Nc2nc(-c3ccc(-c4ccc(F)cc4)o3)cs2)=C(O)c2sc(-c3ccco3)cc2S1(=O)=O [Compound 7, N-{4-[5-(4-Fluorophenyl)-2-furanyl]-2-thiazolyl}-6-(2-furanyl)-4-hydroxy-2-methyl-2H-thieno[2,3-e]-1,2-thiazine-3-carboxmide 1,1-dioxide] | 1600 | 730
CN1C(C(=O)Nc2nc(-c3cc4ccccc4o3)cs2)=C(O)c2sc(Cl)cc2S1(=O)=O [Compound 8, N-[4-(2-Benzo[b]furanyl)-2-thiazolyl]-6-chloro-4-hydroxy-2-methyl-2H-thieno[2,3-e]-1,2-thiazine-3-carboxamide 1,1-dioxide] | 100 | 2200
CN1C(C(=O)Nc2nc(-c3cc4ccccc4o3)cs2)=C(O)c2sc(-c3ccco3)cc2S1(=O)=O [Compound 9, N-[4-(2-Benzo[b]furanyl)-2-thiazolyl]-6-(2-furanyl)-4-hydroxy-2-methyl-2H-thieno[2,3-e]-1,2-thiazine-3-carboxamide 1,1-dioxide] | 39 | 1600
CN1C(C(=O)Nc2nc(-c3cc4ccccc4o3)co2)=C(O)c2sc(-c3ccco3)cc2S1(=O)=O [Compound 11] | 200 | 2100
CN1C(C(=O)Nc2nc(-c3cc4ccccc4s3)co2)=C(O)c2sc(Cl)cc2S1(=O)=O [Compound 12, N-[4-(2-Benzo[b]thienyl)-2-oxazolyl]-6-chloro-4-hydroxy-2-methyl-2H-thieno[2,3e]-thiazine-3-carboxamide 1,1-dioxide] | 190 | 2700
CN1C(C(=O)Nc2ccccn2)=C(O)c2sc(-c3ccccc3)cc2S1(=O)=O [Compound 14, 4-Hydroxy-2-methyl-6-phenyl-N-(2-pyridinyl)-2H-thieno-[2,3-e]-1,2-thiazine-3-carboxamide 1,1-dioxide] | 38 | > 10000
CN1C(C(=O)Nc2ccccn2)=C(O)c2sc(-c3cccs3)cc2S1(=O)=O [Compound 15, 4-Hydroxy-2-methyl-N-(2-pyridinyl)-6-(2-thienyl)-2H-thieno[2,3-e]-1,2-thiazine-3-carboxamide 1,1-dioxide] | 3.5 | > 10000
CN1C(C(=O)Nc2ccccn2)=C(O)c2sc(-c3ccco3)cc2S1(=O)=O [Compound 16, 6-(2-Furyl)-4-hydroxy-2-methyl-N-(2-pyridinyl)-2H-thieno[2,3-e]-1,2-thiazine-3-carboxamide 1,1-dioxide] | 9.6 | > 10000
CN1C(C(=O)Nc2cccc(-c3cc4ccccc4o3)n2)=C(O)c2sc(-c3ccccc3)cc2S1(=O)=O [Compound 17, N-[6-(2-Benzo[b]furyl)-2-pyridinyl]-4-hydroxy-2-methyl-6-phenyl-2H-thieno[2,3-e]-1,2-thiazine-3-carboxamide 1,1-dioxide] | 190 | 1300
CN1C(C(=O)Nc2cccc(-c3cc4ccccc4o3)n2)=C(O)c2sc(-c3cccs3)cc2S1(=O)=O [Compound 18, N-[6-(2-Benzo[b]furyl)-2-pyridinyl]-4-hydroxy-2-methyl-6-(2-thienyl)-2H-thieno[2,3-e]-1,2-thiazine-3-carboxamide 1,1-dioxide] | 68 | 1300
CN1C(C(=O)Nc2cccc(-c3cc4ccccc4o3)n2)=C(O)c2sc(-c3ccco3)cc2S1(=O)=O [Compound 19, N-[6-(2-Benzo[b]furyl)-2-pyridinyl]-6-(2-furyl)-4-hydroxy-2-methyl-2H-thieno[2,3e]-1,2-thiazine-3-carboxamide 1,1-dioxide] | 39 | 1400
CN1C(C(=O)Nc2ccccn2)=C(O)c2sc(Cl)cc2S1(=O)=O [Compound A, reference compound] | 20 | > 10000
